Laboratory results: US20100166708A1, “ANTIMICROBIAL AND ANTI-INFLAMMATORY THERAPIES AND COMPOSITIONS” (THE REGENTS OF THE UNIVERSITY OF CALIFORNIA, priority 2007, published 2010)
Values after ≈ are worked out from the molar mass of the structure shown. Values joined by “and” are separate entries in the source; they are usually repeats but may differ in a detail not shown here. Identical values can stand only once. Like-named read-outs stand apart in the source and are kept apart here.

What was measured:
[1] = ANTS/DPX leakage from lipid vesicles; conditions: incubated with lipid vesicles for 1 hour
Protocol: Both delta-haemolysin and PSMdelta were evaluated for their ability to perforate synthetic lipid vesicles. Lipid vesicles were made with a 2:1 molar ratio of POPC to POPG. The lipid vesicles, extruded through a 200 nm polycarbonate film, encapsulated the fluorescent dye, ANTS, and a quencher: DPX. Upon membrane perforation, ANTS/DPX are released and separated, allowing ANTS to fluoresce at 530 nm.

[2] = Text: (§1) Tryptophan emission is a sensitive indicator for the physical environment surrounding the amino acid (˜330 nm in a folded or hydrophobic environment; ˜355 nm in an unfolded or aqueous environment).
[3] = remark: listed apart in the source
Text: Sequestration of tryptophan (Trp) can be observed through blue shift in wavelength of photon emission after excitation at 290 nm. […] (c) overlay of emission spectra.
as §1

GAS membranes = experiment: SEM analysis of GAS membranes; assay type: cell-based, Group A Streptococcus; conditions: 16 μM peptide

Compound: MSIVSTIIEVVKTIVDIVKKFKK (listed as Staphylococcus epidermidis) [PSMdelta, peptide identified in S. epidermidis fraction 37, tested as synthetic peptide]
- ANTS fluorescence at 530 nm (vesicle leakage) [1]: Dose-dependent fluorescence

Compound: CC[C@H](C)[C@H](NC(=O)[C@H](Cc1c[nH]c2ccccc12)NC(=O)[C@H](CCCCN)NC(=O)[C@@H](NC(=O)[C@H](CC(C)C)NC(=O)[C@H](CC(=O)O)NC(=O)CNC(=O)[C@@H](NC(=O)[C@@H](NC(=O)[C@H](CO)NC(=O)[C@@H](NC(=O)[C@@H](NC(=O)[C@H](CC(=O)O)NC(=O)[C@H](C)NC(=O)[C@H](C)NC(=O)[C@@H](N)CCSC)[C@@H](C)CC)[C@@H](C)CC)[C@@H](C)O)[C@@H](C)CC)C(C)C)C(=O)N[C@H](C(=O)N[C@@H](CC(=O)O)C(=O)N[C@H](C(=O)N[C@H](C(=O)N[C@@H](CC(N)=O)C(=O)N[C@@H](CCCCN)C(=O)N[C@@H](Cc1ccccc1)C(=O)N[C@@H](CCCCN)C(=O)N[C@@H](CCCCN)C(=O)O)C(C)C)[C@@H](C)O)[C@@H](C)CC [delta-haemolysin]
- deltaG^1(H2O) ([2]; 5 μM peptide): 1.43 kcal/mol
- midpoint of the unfolding curve ([2]; 5 μM peptide): 2.14 M urea
- deltaG^1(H2O) ([2]; 25 μM peptide): 1.57 kcal/mol
- midpoint of the unfolding curve ([2]; 25 μM peptide): 3.20 M urea and 3.2 M urea
- deltaG^1(H2O) ([2]; 25 μM peptide, figure legend): 1.57 kcal/mol
- tryptophan emission ([3]; before incubation with lipid vesicles): 339 nm
- tryptophan emission ([3]; incubation with lipid vesicles): 332 nm
- tryptophan emission ([3]; lipid vesicles plus urea): 335 nm
- ANTS fluorescence at 530 nm (vesicle leakage) [1]: Dose-dependent fluorescence
- membrane effect seen by SEM (GAS membranes): membrane blebbing and disruption
- MBC (GAS): 16 µM (≈ 45.1 µg/mL)
- MIC (GAS): 8 µM (≈ 22.6 µg/mL)
- MIC (GAS; listed as Synthetic delta-haemolysin): 16 µM (≈ 45.1 µg/mL)
- MIC of delta-haemolysin in the presence of PSMdelta (GAS; with 2 μM PSMdelta): 4 µM

Compound: CRAMP [reference compound]
- membrane effect seen by SEM (GAS membranes): Membrane disruption
